Source: paper PMC3927586, “Protein kinase C-delta inactivation inhibits the proliferation and survival of cancer stem cells in culture and in vivo” (BMC Cancer, 2014)

How the values were obtained:
Type in all cases: cell-based, human
PCSC cells = experiment: Cell proliferation (MTT) of pancreatic cancer stem cells; conditions: for IC50: Homo sapiens, read-out: IC50 (in culture), growth of PCSC; for IC50 / lowest concentration significantly inhibiting growth of PCSC cultures: 48 hr; for lowest concentration significantly inhibiting growth of PCSC cultures: p ≤ 0.02 vs vehicle
Description: (§1) Cell proliferation was assessed using an MTT [3-(4,5-dimethylthiazol-2-yl)-2,5-diphenyltetrazolium bromide] assay (Roche, Mannheim, Germany). The number of viable cells growing in a single well on a 96-well microtiter plate was estimated by adding 10 μl of MTT solution (5 mg/ml in phosphate-buffered saline [PBS]). After 4 h of incubation at 37°C, the stain was diluted with 100 μl of dimethyl sulfoxide. The optical densities were quantified at a test wavelength of 570 nm and a reference wavelength of 690 nm on a multiwell spectrophotometer. In some assays, MTS was used as substrate (Promega, Madison, WI), and the absorbance of the product was monitored at 490 nm. Cell enumeration was carried out using a hemocytometer, and viable cells identified by trypan blue exclusion.
Figure 2 Effects of PKCδ inhibitors on human cancer stem cells. (A) PCSC and PrCSC cells at 80% confluence were exposed to rottlerin. DMSO served as vehicle control (Vehicle). After 24 and 72 hr of exposure, cell mass was evaluated by MTT assay. Control values were normalized to 100%. p values for comparison between treatments reached significance at 24 hr of exposure (p≤0.01) for both cell types, and remained significant at 72 hr. (B) PCSC and PrCSC cells at 50% confluence were exposed to rottlerin. Cytotoxicity was evaluated by LDH-release assay. Total maximal LDH release was assigned the arbitrary value of 100% (Control). p values for comparison between effects of treatments on LDH release reached significance at 24 hr of exposure (p<0.01) for both cell types, and remained significant at 72 hr. (C) Effects of PKCδ inhibitor on tumor cell clonogenic capacity. PCSC were exposed to vehicle or rottlerin (10 μM) for 6, 18, 24, or 48 hr. Viable cells were enumerated and re-plated in media without inhibitor, and colony numbers were quantitated 15 days later. p values for comparison of treatment effects on clonogenic capacity reached significance (p=0.005) at 18 hr of exposure and remained significant for all subsequent exposure times. The insert is a photograph of stained colonies on plates. (D) Structures of staurosporine, rottlerin, second-generation (KAM1) and third-generation (BJE6-106) derivatives. (E) PCSC and PrCSC cells at 50% confluence were exposed to KAM1 at the indicated concentrations. DMSO served as vehicle control (Vehicle). Cytotoxicity was evaluated by LDH-release assay, as in panel B. p values for comparison between treatment effects on LDH release reached significance at 24 hr of exposure to 2.5 μM KAM1 for PCSC cells and at 10 μM for PrCSC (p≤0.01), and remained significant at 72 hr for all concentrations of KAM1. Error bars represent SEM.
Figure 3 Effects of a 3rd generation small molecule PKCδ inhibitor on human pancreatic cancer stem cell cultures. PCSC cells were grown to 80% confluence in 96-well plates and then exposed to BJE6-106 at concentrations ranging from 0.1 to 20 μM, or to rottlerin at concentrations ranging from 1 to 20 μM. The corresponding equivalent volume of solvent (DMSO) was used as a vehicle control (Vehicle). After 48 and 72 hr of exposure, cell mass was evaluated by MTT assay. Control values were normalized to 100%. Error bars represent SEM. p values for comparison between vehicle and rottlerin effects on cell number at 48 hr reached significance at 1 μM, and for BJE6-106 at 0.1 μM (p ≤ 0.02), and remained significant at the 72 hr time point.

SBcl2 = experiment: Tumor spheroid growth, SBcl2 melanoma; conditions: p < 0.001
Description: Tumor self-renewing and anchorage-independent spheroids were obtained by culturing breast cancer cells MCF7, Hs587T and MDA231; melanoma cells SBcl2 and FM6; human breast cancer stem cells and pancreatic cancer stem cells in stem cell-selective conditions according to the manufacturer’s instructions (StemCell Technologies, Tukwila, WA). Briefly, cancer and cancer stem cells were propagated in 6-well ultra-low adherent plates (Corning) in Complete MammoCult Medium (Human) by adding 50 mL of MammoCult Proliferation Supplements to 450 mL of MammoCult Basal Medium (StemCell Technologies). The following were added to obtain Complete MammoCult Medium: 4 ug/mL Heparin (StemCell Technologies), 0.48 μg/mL hydrocortisone (StemCell Technologies), 200 U penicillin/ml; and 200 μg streptomycin/ml (Invitrogen).

MCF 10A cells = experiment: Cell proliferation (MTT) of non-transformed breast epithelial cells; conditions: for concentration at which effect on MCF 10A cell number reached significance: 48 hr, p < 0.05; for IC50: Homo sapiens, MCF-10A, 72 hr, read-out: IC50 for the parental MCF 10A cells
Description: as §1
Figure 5 Effects of PKCδ inhibitors on growth and spheroid formation in non-transformed and transformed human breast epithelial cells. MCF 10A cells and cells from the derived tumorigenic line MCF 10C (also called M3), were grown to 80% confluence in 96-well plates and then exposed to rottlerin at concentrations ranging from 1 to 20 μM (A) or to BJE6-106 at concentrations ranging from 0.1 to 20 μM (B). The corresponding equivalent volume of solvent (DMSO) was used as a vehicle control (Vehicle). After 24, 48 and 72 hr of exposure, cell mass was evaluated by MTT assay. Control (vehicle) values were normalized to 100%. Error bars represent SEM. p values for comparison between vehicle and PKCδ inhibitors on MCF 10A cell number only reached significance (p < 0.05) at 48 hr at 20 μM for rottlerin, and at 1 μM for BJE6-106. In contrast, significant effects of the inhibitors on the MCF 10C cells were observed as early as 24 hr for rottlerin (at 5 μM) and for BJE6-106 (at 0.1 μM). (C) MCF 10A and MCF 10C cells were plated at 10,000 cells per well in tumor spheroid media, and spheroid formation was assessed at days 10 and 21. Representative photographs are shown. (D) MCF 10C cells were plated at 10,000 cells per well in tumor spheroid media, in the presence of rottlerin (5 μM), or BJE6-106 (1 μM or 5 μM), or DMSO vehicle (Control). Tumor spheroids were enumerated at 10 days. Representative photographs are shown. (E) Spheroid numbers were normalized to the number of spheroids in the control cultures (assigned an arbitrary value of 100%) and plotted. Error bars represent SEM. p values for comparison between vehicle and rottlerin or BJE6-106 effects on spheroid number were significant (p < 0.001).

CC1(C)C=Cc2cc(CCn3c4ccccc4c4ccccc43)cc(C=O)c2O1 [BJE6-106, 6-(2-(9H-carbazol-9-yl)ethyl)-2,2-dimethyl-2H-chromene-8-carbaldehyde] was tested, and the IC50 (PCSC cells; MTT) was about 500 nM, the “lowest concentration significantly inhibiting growth of PCSC cultures” value (PCSC cells; MTT) was 0.1 µM and the “inhibition of tumor spheroid growth, SBcl2” value (SBcl2; BJE6-106 at 0.5-1.0 μM) was over 99.5%. For the same compound, the “concentration at which effect on MCF 10A cell number reached significance” value (MCF 10A cells) was 1 µM and the IC50 (MCF 10A cells) was over 20 µM.
For CC(=O)c1c(O)c(C)c(O)c(Cc2c(O)c3c(c(C(=O)/C=C/c4ccccc4)c2O)OC(C)(C)C=C3)c1O [rottlerin, Rottlerin, reference compound], the “growth-inhibitory activity on PCSC at 0.5 μM” value (PCSC cells; 0.5 μM) was “no significant inhibitory activity”, the IC50 (PCSC cells; MTT) was about 3000 nM and the “lowest concentration significantly inhibiting growth of PCSC cultures” value (PCSC cells; MTT) was 1 µM. The “effect on proliferation of PCSC” value (PCSC cells; MTT, as early as 24 hr after exposure) was “significant dose-dependent inhibition of proliferation”, the inhibition at 10 µM (SBcl2; Homo sapiens, SBcl2, rottlerin at 10 μM) was over 99.5% and the “concentration at which effect on MCF 10A cell number reached significance” value (MCF 10A cells) was 20 µM. It also gave an IC50 (MCF 10A cells) of over 20 µM.
